Assay results reported in ChEMBL document CHEMBL1138227, “N1-substituted thymine derivatives as mitochondrial thymidine kinase (TK-2) inhibitors” (J Med Chem, 2006).

Columns and labels:
[1] = biological target: T1, Thymidine kinase 2, mitochondrial (Homo sapiens, UniProt O00142); test: Inhibition of [3H]methyl dThd phosphorylation by TK2
T1 sequence (O00142 whole entry): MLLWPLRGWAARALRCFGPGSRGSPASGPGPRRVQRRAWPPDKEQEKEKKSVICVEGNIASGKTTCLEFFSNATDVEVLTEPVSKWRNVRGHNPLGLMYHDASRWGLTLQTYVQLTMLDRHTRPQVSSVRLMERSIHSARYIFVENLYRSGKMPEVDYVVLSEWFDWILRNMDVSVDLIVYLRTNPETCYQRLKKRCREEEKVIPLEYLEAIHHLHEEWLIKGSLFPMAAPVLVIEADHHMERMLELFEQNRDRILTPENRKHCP

Deoxynucleoside kinase = biological target: T2, Deoxynucleoside kinase (Drosophila melanogaster, UniProt Q9XZT6); test: Inhibition of [3H]methyl dThd phosphorylation by Drosophila melanogaster dNK
T2 sequence (Q9XZT6 whole entry): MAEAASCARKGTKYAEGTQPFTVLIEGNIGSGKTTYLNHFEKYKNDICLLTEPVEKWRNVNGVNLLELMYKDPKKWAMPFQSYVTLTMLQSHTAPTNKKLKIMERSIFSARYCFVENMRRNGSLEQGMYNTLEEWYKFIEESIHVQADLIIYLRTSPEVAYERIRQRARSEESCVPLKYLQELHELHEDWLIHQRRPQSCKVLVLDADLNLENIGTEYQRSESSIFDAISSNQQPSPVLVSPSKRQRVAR

Thymidine kinase = biological target: T3, Thymidine kinase (Human alphaherpesvirus 1, UniProt Q9QNF7); test: Inhibition of [3H]methyl dThd phosphorylation by HSV1 TK
T3 sequence (Q9QNF7 whole entry): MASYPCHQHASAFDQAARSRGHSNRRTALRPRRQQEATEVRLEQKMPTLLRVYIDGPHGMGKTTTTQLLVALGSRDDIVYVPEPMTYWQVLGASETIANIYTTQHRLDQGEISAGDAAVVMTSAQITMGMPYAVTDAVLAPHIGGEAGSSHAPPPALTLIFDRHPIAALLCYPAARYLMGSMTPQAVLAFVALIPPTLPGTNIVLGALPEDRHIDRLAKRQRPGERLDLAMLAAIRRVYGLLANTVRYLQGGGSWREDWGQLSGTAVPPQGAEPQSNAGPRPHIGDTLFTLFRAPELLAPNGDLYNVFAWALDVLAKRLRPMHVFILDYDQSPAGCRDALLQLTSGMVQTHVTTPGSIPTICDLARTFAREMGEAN

[2] = Cytotoxicity against human OST TK- cells expressing HSV1 TK in presence of 5 uM 1-[6-(triphenylmethoxy)hexyl]thymine; assay type: cell-based
[3] = Cytotoxicity against human OST TK- cells expressing HSV1 TK in presence of 2.5 uM 1-[6-(triphenylmethoxy)hexyl]thymine; assay type: cell-based
[4] = Cytotoxicity against human OST TK- cells expressing HSV1 TK in presence of 5 uM 1-[6-[1,1-(diphenyl)-1-(4-pyridyl)methoxy]hexyl]thymine; assay type: cell-based
[5] = Cytotoxicity against human OST TK- cells expressing HSV1 TK in presence of 2.5 uM 1-[6-[1,1-(diphenyl)-1-(4-pyridyl)methoxy]hexyl]thymine; assay type: cell-based
[6] = Cytotoxicity against human OST TK- cells expressing HSV1 TK in presence of 10 uM 1-[6-(triphenylmethoxy)hexyl]thymine; assay type: cell-based
[7] = biological target: T1, Thymidine kinase 2, mitochondrial; test: Inhibition of TK2
[8] = Cytotoxicity against human OST TK- cells expressing HSV1 TK in presence of 10 uM 1-[6-[1,1-(diphenyl)-1-(4-pyridyl)methoxy]hexyl]thymine; assay type: cell-based
[9] = Cytotoxicity against human OST TK- cells expressing HSV1 TK; assay type: cell-based

| Compound | IC50 [1] | IC50 (Deoxynucleoside kinase) | IC50 (Thymidine kinase) | IC50 [2] | IC50 [3] | IC50 [4] | IC50 [5] | IC50 [6] | Ki [7] | IC50 [8] | IC50 [9] |
| --- | --- | --- | --- | --- | --- | --- | --- | --- | --- | --- | --- |
| CNC(=O)c1ccc(C(OCCCCCCn2cc(C)c(=O)[nH]c2=O)(c2ccccc2)c2ccccc2)cc1 | 0.39 µM | 3.5 µM | 0.7 µM |  |  |  |  |  |  |  |  |
| Cc1cn(CCOCCOC(c2ccccc2)(c2ccccc2)c2ccccc2)c(=O)[nH]c1=O | 9.7 µM | 56 µM | 17 µM |  |  |  |  |  |  |  |  |
| Cc1cn(CCCCCCOC(c2ccccc2)(c2ccccc2)c2ccc(Cl)cc2)c(=O)[nH]c1=O | 1.9 µM | 47 µM | 1 µM |  |  |  |  |  |  |  |  |
| Cc1cn(CCCCCCOC(c2ccccc2)(c2ccccc2)c2ccncc2)c(=O)[nH]c1=O | 0.47 µM | 2.7 µM | 2 µM | 0.24 µM | 0.12 µM | 0.081 µM | 0.05 µM | 0.37 µM | 0.29 µM | 0.11 µM |  |
| Cc1cn([C@@H]2O[C@H](CO)[C@@H](O)[C@@H]2O)c(=O)[nH]c1=O |  |  |  | 0.1 µM | 0.055 µM | 0.24 µM | 0.12 µM | 0.15 µM |  | 0.37 µM | 0.0062 µM |
| Cc1cn(C/C=C\COC(c2ccccc2)(c2ccccc2)c2ccc(Cl)cc2)c(=O)[nH]c1=O | 2.4 µM | 5.7 µM | 18 µM |  |  |  |  |  |  |  |  |
| Cc1cn(C/C=C\COC(c2ccccc2)(c2ccccc2)c2ccncc2)c(=O)[nH]c1=O | 1.8 µM | 3.4 µM | 25 µM |  |  |  |  |  |  |  |  |
| Cc1cn(C/C=C\COC(c2ccccc2)(c2ccccc2)c2cc[n+](C)cc2)c(=O)[nH]c1=O | 114 µM | 144 µM | > 500 µM |  |  |  |  |  |  |  |  |
| Cc1cn(CCCCCCCCOC(c2ccccc2)(c2ccccc2)c2ccccc2)c(=O)[nH]c1=O | 45 µM | 30 µM | > 500 µM |  |  |  |  |  |  |  |  |
| Cc1cn(CCOCCOC(c2ccccc2)(c2ccccc2)c2ccc(Cl)cc2)c(=O)[nH]c1=O | 5.2 µM | 45 µM | 2.7 µM |  |  |  |  |  |  |  |  |
| CNC(=O)c1ccc(C(OC/C=C\Cn2cc(C)c(=O)[nH]c2=O)(c2ccccc2)c2ccccc2)cc1 | 1.9 µM | 1.6 µM | 42 µM |  |  |  |  |  |  |  |  |
| Cc1cn(CCCCCOC(c2ccccc2)(c2ccccc2)c2ccccc2)c(=O)[nH]c1=O | 2.5 µM | 15 µM | 32 µM |  |  |  |  |  |  |  |  |
| Cc1cn(C/C=C\COC(c2ccccc2)(c2ccccc2)c2ccccc2)c(=O)[nH]c1=O |  | 3.3 µM |  |  |  |  |  |  |  |  |  |
| Cc1cn(CCOCCOC(c2ccccc2)(c2ccccc2)c2ccncc2)c(=O)[nH]c1=O | 23 µM | 35 µM | 21 µM |  |  |  |  |  |  |  |  |
| Cc1cn(CCCCCCOC(c2ccccc2)(c2ccccc2)c2ccccc2)c(=O)[nH]c1=O | 0.5 µM | 17 µM | 3.7 µM | 0.1 µM | 0.055 µM | 0.033 µM | 0.018 µM | 0.15 µM |  | 0.041 µM |  |
| Cc1cn(CCCCCCOC(c2ccccc2)(c2ccccc2)c2cc[n+](C)cc2)c(=O)[nH]c1=O | 23 µM | 29 µM | 41 µM |  |  |  |  |  |  |  |  |
| Cc1cn(CCCCCCCOC(c2ccccc2)(c2ccccc2)c2ccccc2)c(=O)[nH]c1=O | 4.7 µM | 32 µM | ≥ 50 µM |  |  |  |  |  |  |  |  |
| Cc1cn(CCCOC(c2ccccc2)(c2ccccc2)c2ccccc2)c(=O)[nH]c1=O | 45 µM | 21 µM | 46 µM |  |  |  |  |  |  |  |  |
| Nc1nc2c(ncn2COC(CO)CO)c(=O)[nH]1 [GANCICLOVIR] |  |  |  | 0.033 µM | 0.018 µM | 0.081 µM | 0.05 µM | 0.041 µM |  | 0.11 µM | 0.0019 µM |
